Test results from US20170064966A1, “ANTIMICROBIAL COMPOSITIONS AND METHODS AND USES THEREOF” (BAR ILAN UNIVERSITY, priority 2015, published 2017).
Read-outs that look alike come from different tables or passages of the source. Non-standard residues stand in square brackets, D forms with d. No end group written: not given here.

How the values were obtained:
[1] = test system: P. aeruginosa strains PAO1, PA14 and clinical isolate DK2; experiment: Flow cell biofilm experiment in the presence of inhibitory peptide
Description: Bacterial strains (Pseudomonas aeruginosa strains PA14 and DK2) containing the plasmid pUCP-GFP inserted to bacterial cells by electroporation (pUCP18 that constitutionally expresses the GFP under the lac promoter), were inoculated from −80° C. stock into 2 mL TSB containing 300 μg/mL Carb (to maintain the pUCP-GFP plasmid) and grown overnight at 37° C. with agitation. The next day, bacteria were diluted to 0.05 OD (595 nm) in 1% TSB containing the antibiotics and loaded onto 6 channel 1μ-Slide I^0.4 Luer uncoated (Ibidi). The slide was connected to a flow cell containing fresh 1% TSB with 0.05 Mm, 0.1 mM peptides or without peptides. Fresh media flowed through the slide by a pump at 10 mL/h (2 rpm). Bacteria were grown in the slide for 48 hours at 37° C. After 48 hours, 3 representative pictures from the beginning and the middle of the slide, were taken using SP8 confocal HyD microscope (Leica). Pictures were analyzed by Imaris software (version 7.2.2).

[2] = test system: PA biofilm formation; experiment: Static biofilm model with N′-loop derived peptides (crystal violet); settings: for anti-biofilm activity / inhibition of PA biofilm formation: peptides 1-6 at 0.01, 0.05 and 0.1 mM, FIG. 10B
Description: The static biofilm model was used to assess the ability of N′-loop derived peptides to reduce PA biofilm formation. Briefly, PA wild type bacteria were grown over night in M9 medium (20 mM NH4Cl; 12 mM Na2HPO4; 22 mM KH2PO4; 8.6 mM NaCl; 1 mM MgSO4; 1 mM CaCl2; 11 mM Dextrose) at 37 C. Following growth cells were diluted to a final concentration of 5*10^7 in M9 medium contacting 1/10 the phosphate concentration. 100 microliter of the bacterial suspension was transferred to each well of 96 wells plate. The six tested peptides were added at different concentrations 0.01, 0.05 and 0.1 mM. The plate was then incubated for 24 h at 37° C. to allow biofilm development. After incubation the medium was removed and the wells were carefully washed twice with sterile ddsH2O to remove planktonic bacteria. Next 150 microliter of 1% crystal violet (w/v) was added to each well in order to stain the biofilm cells. The stain was allowed to incubate for 15 min after which the wells were washed again with ddsH2O. The stain attached to the biofilm was then extracted by adding 200 microliter ethanol (95%). The biofilm biomass was quantified by reading the absorbance at 595nm using an ELISA plate reader.

[3] = measured under similar pH conditions, ref (18); read-out: phosphate binding (KD) reported for PstS orthologs; cited from earlier work
[4] = type: binding; settings: P^32-labeled phosphate, pH 7.5, FIG. 3C

modified peptide-3: enantiomer of peptide-3 having the N-terminal Ala and C-terminal Glu residues in the D-form (SEQ ID NO. 56) ([dA]IDPALP[dE])
biofilm formation (biovolume) ([1]; 0.1 mM in media, 48 h, strains PAO1, PA14, DK2, FIG. 11A): significantly reduces the biofilm formation | biofilm formation phenotype, confocal microscope images ([1]; strains PAO1, PA14, DK2, 48 h, FIG. 11B): changes the biofilm formation phenotype of all PA strains examined | inhibition of PA biofilm formation ([2]; 0.1 millimolar modified peptide 3, FIG. 10C): efficiently inhibited biofilm formation

AIDPALPE
anti-biofilm activity / inhibition of PA biofilm formation [2]: inhibits most effectively biofilm formation | anti-biofilm activity / inhibition of PA biofilm formation ([2]; listed as peptide 3): most effective peptide

B1: E. coli PstS: PstS ortholog from E. coli, literature value (18) (protein, UniProt P0AG82 26-346, looked up)
Phosphate-binding protein PstS: EASLTGAGATFPAPVYAKWADTYQKETGNKVNYQGIGSSGGVKQIIANTVDFGASDAPLSDEKLAQEGLFQFPTVIGGVVLAVNIPGLKSGELVLDGKTLGDIYLGKIKKWDDEAIAKLNPGLKLPSQNIAVVRRADGSGTSFVFTSYLAKVNEEWKNNVGTGSTVKWPIGLGGKGNDGIAAFVQRLPGAIGYVEYAYAKQNNLAYTKLISADGKPVSPTEENFANAAKGADWSKTFAQDLTNQKGEDAWPITSTTFILIHKDQKKPEQGTEVLKFFDWAYKTGAKQANDLDYASLPDSVVEQVRAAWKTNIKDSSGKPLY
Kd [3]: ~3 µM

B2: wild-type PstS: periplasmic phosphate-binding subunit of the P. aeruginosa Pst transporter, purified from E. coli (protein)
chain: MKLKRLMAALTFVAAGVGAASAVAAIDPALPEYQKASGVSGNLSSVGSDTLANLMTMWAEEYKRLYPNVNIQIQAAGSSTAPPALTEGTANLGPMSRKMKDVELQAFEQKYGYKPTAVPVAVDALAIFVHKDNPIKGLTMQQVDAIFSATRLCGSKQDVKTWGDLGLTGDWAKKPVQLFGRNSVSGTYGYFKEEALCKGDFRPNVNEQPGSASVVQSVSQSLNGIGYSGIGYKTASVKTVALAKKEGAAFVEDNEQNALNGTYPLSRFLYVYVNKAPNKPLDPLEAQFLKLVLSKTGQQVVVKDGYIPLPAKVAEKAIKELGL
modifications: P.aeruginosa PstS - accession number NP_254056.1
Kd ([4]; read-out: dissociation constant (KD) for PO4): 0.84 ± 0.12 µM

B3: S96E (protein)
chain: MKLKRLMAALTFVAAGVGAASAVAAIDPALPEYQKASGVSGNLSSVGSDTLANLMTMWAEEYKRLYPNVNIQIQAAGSSTAPPALTEGTANLGPMERKMKDVELQAFEQKYGYKPTAVPVAVDALAIFVHKDNPIKGLTMQQVDAIFSATRLCGSKQDVKTWGDLGLTGDWAKKPVQLFGRNSVSGTYGYFKEEALCKGDFRPNVNEQPGSASVVQSVSQSLNGIGYSGIGYKTASVKTVALAKKEGAAFVEDNEQNALNGTYPLSRFLYVYVNKAPNKPLDPLEAQFLKLVLSKTGQQVVVKDGYIPLPAKVAEKAIKELGL
modifications: The S96E PstS mutant
dissociation constant (KD) for PO4 [4]: very weak or no binding
